Data: article PMC2600610, “Ir-LBP, an Ixodes ricinus Tick Salivary LTB4-Binding Lipocalin, Interferes with Host Neutrophil Function” (PLoS ONE, 2008)
pIC50, pKd: −log10 of the molar value.

Experiments:
Ir-LBP [1] = biological target: T1, Ir-LBP (Ixodes ricinus, UniProt B7ZDG7); test: Competitive binding: inhibition of 3H-LTB4 binding to Ir-LBP by eicosanoids; settings: 2 h; for decrease of the binding of 1 nM 3H-LTB4 to Ir-LBP: competitor at 10 µM
Procedure: The specificity of this binding was then evaluated by incubating Ir-LBP with increasing concentrations of different eicosanoids (LTB4, LTD4, LTC4, LTE4, 12(R)-hydroxyeicosatetraenoic acid (HETE), 15(S)-hydroxyperoxyeicosatetraenoic acid (HpETE), LTA4 methyl ester and 5 (S), 6 (R)-Lipoxin A4) in the presence of a fixed concentration of ^3H-LTB4 (Figure 1B). […] On the other hand, only at a very high concentration of 10 µM were LTD4, LTE4 and 12(R)-HETE able to decrease the binding of 1 nM of ^3H-LTB4 to Ir-LBP by approximately 30%. […] Furthermore, this interaction is reversible. The addition of an excess of cold LTB4 (10 µM) for 2 h displaces the binding between Ir-LBP and 1 nM of ^3H-LTB4 (data not shown). […] This binding may only be displaced by very high concentrations (10 µM versus nM) of eicosanoid analogs.
(§1) The dissociation constant was measured in PBS (pH 7.4) using purified Ir-LBP and an increasing amount of ^3H-LTB4. Non-specific binding was determined by measuring bound radioactivity in the absence of Ir-LBP. Protein precipitation with polyethylene glycol 8000 was used to separate bound from free histamine. Protein-bound radioactivity was determined with a Wallac 1409 scintillation counter. Saturation experiments were analyzed by non-linear regression using the curve fitting program GraphPad Prism® (GraphPad software, San Diego, CA, U.S.A.), B = (Bmax [F])/KD+[F]), where B is the amount of bound ligand at equilibrium, Bmax is the maximum number of binding sites, [F] is the concentration of free ligand and KD is the ligand dissociation constant. Competitive binding assays were performed using purified Ir-LBP with 1 nM of ^3H-LTB4 and an increasing amount of unlabelled competitor for 2 h.

neutrophils [2] = system: neutrophils; parameters: method as in PMID 12770944, PMID 10588632; settings: BLT1 antagonists; cited from earlier work
Ir-LBP [3] = biological target: T1, Ir-LBP; test: Saturation curve and Scatchard analysis for LTB4 binding to Ir-LBP (Figure 1A), ligand as substance; settings: saturation curve, 3H-LTB4
Human neutrophils = test: Neutrophil apoptosis assay (Annexin-V-FITC/PI, flow cytometry); format: cell-based; settings: LTB4 10^-7 M, 24 h of culture
Procedure: Human blood neutrophils were obtained from buffy coats (Transfusion Center, Liege, Belgium). Neutrophils were separated from mononuclear cells by density centrifugation (Histopaque; Sigma-Aldrich). Contaminating erythrocytes were removed from the neutrophil fraction by hypotonic lysis. Neutrophil purity, determined by counting cytospin preparations stained with Diff-Quick (Dade Behring), was always >95%. Neutrophils were cultured at a density of 2×10^6 cells/ml in RPMI-1640 supplemented with 1% glutamine, 10% FCS, 50 µg/ml streptomycin, and 50 IU/ml penicillin (all from Gibco BRL). Neutrophils were cultured in the absence or presence of 10^−7 M LTB4 (Sigma-Aldrich) and/or 0.2–2 µg/ml Ir-LBP.
Apoptosis was assessed by staining with Annexin-V-FITC and propidium iodide (PI) using the Annexin-V-FLUOS staining kit (Roche), following the manufacturer's recommendations. Flow cytometry analyses were performed with a FACSAria™ (BD Biosciences).

BLT1 = biological target: BLT1; parameters: method as in PMID 6097945, PMID 6323613, PMID 2823316; settings: read-out: Kd of BLT1 for LTB4; cited from earlier work
BLT2 = biological target: BLT2; parameters: method as in PMID 10934230; settings: read-out: Kd of BLT2 for LTB4; cited from earlier work
neutrophils [4] = system: neutrophils; parameters: method as in PMID 9261334; settings: BLT1 and BLT2 antagonist; cited from earlier work
R53T/R73A = system: T2, R53T/R73A; test: Saturation binding of ^3H-LTB4 (PBS pH 7.4, PEG 8000 precipitation) to wild-type and mutant Ir-LBP expressed in 293T cells.; settings: SD
T2 construct: pCDNA3.1/V5-His-TOPO, expressed in 293T cells
Source text: (§2) In order to determine which amino acids of Ir-LBP are involved in the binding to LTB4, we produced mutants designed on the basis of the dynamic model established in silico. […] For the interaction with the second hydroxyl group, the residue selected to be mutated is Arg 73. The choice was made on this residue because Glu 188 is conserved for all LIRs and should thus not be as specific as Arg 73; furthermore, Arg 53 is bridged to Arg 73 by an aspartic residue from the loop corresponding to the Ω loop in Ra-HBP2. The two hydroxyl groups and the two Arg bridged by Asp Ω could form an interacting network, further stabilizing the binding with LTB4. Two single mutants were therefore produced by replacing Arg 53 with threonine (R53T) and Arg 73 with alanine (R73A). A double mutant (R53T/R73A) was also produced by combining the 2 substitutions of the single mutants. A null mutant was also constructed by replacing serine 124 with threonine (S124T). […] Therefore, the affinity of this mutant for LTB4 should not be affected. These mutants and “wild type” Ir-LBP were expressed in 293T cells, and analyzed to determine their dissociation constant for LTB4.
(§3) Site-directed mutagenesis of Ir-LBP in pCDNA3.1/V5-His-TOPO
(§4) Subconfluent 293T cells in 35-mm diameter wells (Orange Scientific) were transfected with […] plasmid DNA and […] Fugene 6 (Roche Biochemicals) in Dulbecco's modified Eagle's medium (DMEM, Invitrogen) without FCS. The medium was harvested after 72 h. Pooled supernatants were cleared by centrifugation, concentrated 10-fold by filtration on 10000 NMWL membranes (Millipore), ultracentrifuged at 140,000 g before use, and finally stored at −80°C. Concentrated culture supernatants were analyzed by western blotting on a Hybond ECL membrane (GE healthcare) using an anti-V5 primary antibody (Invitrogen), an IgHRP conjugate as secondary antibody and the ECL detection reagent (GE healthcare) according to the manufacturer's instructions. The coding regions of Ir-LBP were amplified by PCR (94°C for 30 s, 56°C for 30 s, 72°C for 1 min.; 30 cycles) using ExTaq DNA Polymerase (Taqara). […]
as §1, with “Protein precipitation with polyethylene glycol 8000 was used to separate bound from free histamine.” left out, “Competitive binding assays were performed using purified Ir-LBP with 1 nM of ^3H-LTB4 and an increasing amount of unlabelled competitor for 2 h.” left out

R53T = system: T3, R53T; test: as above; settings: SD
T3 construct: pCDNA3.1/V5-His-TOPO, expressed in 293T cells
Source text: as §2, §3, §4
as §1, with “Protein precipitation with polyethylene glycol 8000 was used to separate bound from free histamine.” left out, “Competitive binding assays were performed using purified Ir-LBP with 1 nM of ^3H-LTB4 and an increasing amount of unlabelled competitor for 2 h.” left out

R73A = system: T4, R73A; test: as above; settings: SD
T4 construct: pCDNA3.1/V5-His-TOPO, expressed in 293T cells
Source text: as §2, §3, §4
as §1, with “Protein precipitation with polyethylene glycol 8000 was used to separate bound from free histamine.” left out, “Competitive binding assays were performed using purified Ir-LBP with 1 nM of ^3H-LTB4 and an increasing amount of unlabelled competitor for 2 h.” left out

S124T = system: T5, S124T; test: as above; settings: SD
T5 construct: pCDNA3.1/V5-His-TOPO, expressed in 293T cells
Source text: as §2, §3, §4
as §1, with “Protein precipitation with polyethylene glycol 8000 was used to separate bound from free histamine.” left out, “Competitive binding assays were performed using purified Ir-LBP with 1 nM of ^3H-LTB4 and an increasing amount of unlabelled competitor for 2 h.” left out

T1 sequence (B7ZDG7 20-200 limits assumed): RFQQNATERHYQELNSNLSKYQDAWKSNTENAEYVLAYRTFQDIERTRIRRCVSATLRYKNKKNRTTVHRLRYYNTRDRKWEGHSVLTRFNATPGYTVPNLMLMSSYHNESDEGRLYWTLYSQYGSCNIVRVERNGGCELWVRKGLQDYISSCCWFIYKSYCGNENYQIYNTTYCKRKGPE

## CCCCC[C@H](O)/C=C/C=C\C=C\C=C\[C@@H](O)[C@@H](O)CCCC(=O)O [5(S), 6(R)-Lipoxin A4, 5 (S), 6 (R)-Lipoxin A4]
Ir-LBP [1]
  decrease of the binding of 1 nM 3H-LTB4 to Ir-LBP: unable to compete

## CCCCC/C=C\C[C@@H](O)/C=C/C=C\C/C=C\CCCC(=O)O [12(R)-HETE, 12(R)-hydroxyeicosatetraenoic acid]
Ir-LBP [1]
  decrease of the binding of 1 nM 3H-LTB4 to Ir-LBP: approximately 30%

## CCCCC[C@@H](/C=C/C=C\C/C=C\C/C=C\CCCC(=O)O)OO [15(S)-HpETE, 15(S)-hydroxyperoxyeicosatetraenoic acid]
Ir-LBP [1]
  decrease of the binding of 1 nM 3H-LTB4 to Ir-LBP: unable to compete

## O=C(O)C1(c2ccc3c(c2)OC[C@H](Cc2ccc(-c4ccccc4)cc2)[C@H]3O)CCCC1 [CP-105696]
Neutrophils [2]
  inhibition of the apoptosis delay induced by LTB4: capable of inhibiting

## CCCCC/C=C\C\C=C/C=C/C=C/[C@@H]1O[C@H]1CCCC(=O)OC [LTA4 methyl ester]
Ir-LBP [1]
  decrease of the binding of 1 nM 3H-LTB4 to Ir-LBP: unable to compete

## CCCCC/C=C\C[C@@H](O)/C=C/C=C/C=C\[C@@H](O)CCCC(=O)O [LTB4, Leukotriene B4]
Ir-LBP [3]
  pKd: 9.23
Ir-LBP [1]; 1 nM 3H-LTB4, unlabelled competitor
  pIC50: 8.24
Human neutrophils
  apoptosis levels versus untreated controls: significantly lower
BLT1
  pKd: ~9.00
BLT2
  pKd: ~7.64

## CCCCC/C=C\C\C=C/C=C/C=C/[C@@H](SC[C@H](NC(=O)CC[C@H](N)C(=O)O)C(=O)NCC(=O)O)[C@@H](O)CCCC(=O)O [LTC4]
Ir-LBP [1]
  decrease of the binding of 1 nM 3H-LTB4 to Ir-LBP: unable to compete

## CCCCC/C=C\C\C=C/C=C/C=C/[C@@H](SC[C@H](N)C(=O)NCC(=O)O)[C@@H](O)CCCC(=O)O [LTD4]
Ir-LBP [1]
  decrease of the binding of 1 nM 3H-LTB4 to Ir-LBP: approximately 30%

## CCCCC/C=C\C\C=C/C=C/C=C/[C@@H](SC[C@H](N)C(=O)O)[C@@H](O)CCCC(=O)O [LTE4]
Ir-LBP [1]
  decrease of the binding of 1 nM 3H-LTB4 to Ir-LBP: approximately 30%

## COc1ccc(/C=C/CCCCOc2cccc(OCCCCC(=O)O)c2CCC(=O)O)cc1 [ONO-4057]
Neutrophils [4]
  inhibition of endothelial transmigration of neutrophils: totally inhibits

## COc1ccc(CCCCCCCCOc2ccc(C[S+]([O-])c3cccc(N)c3)nc2/C=C/C(=O)[O-])cc1.[Li+] (stereo not shown) [SB201146]
Neutrophils [2]
  inhibition of the apoptosis delay induced by LTB4: capable of inhibiting

## CCCCC/C=C\C[C@@H](O)/C=C/C=C/C=C\[C@@H](O)CCCC(=O)O [^3H-LTB4, tritiated leukotriene B4]
R53T/R73A
  pKd: 8.37
R53T
  pKd: 9.37
R73A
  pKd: 9.06
S124T
  pKd: 9.35
